Data: ChEMBL document CHEMBL5352486, “Design, synthesis, in vitro - In vivo biological evaluation of novel thiazolopyrimidine compounds as antileishmanial agent with PTR1 inhibition” (Eur J Med Chem, 2023)
Values after ≈ are worked out from the molar mass of the structure shown.

Columns and labels:
[1] = test system: Leishmania infantum; assay: Antileishmanial activity against Leishmania infantum MHOM/TN/1980/IPT1 incubated for 48 hrs by Neubauer hemocytometer analysis; format: functional, organism-based; conditions: MHOM/TN/1980/IPT1, 48 h
[2] = test system: Leishmania infantum; assay: Antileishmanial activity against Leishmania infantum MHOM/TN/1980/IPT1 incubated for 48 hrs by XTT method; format: functional, organism-based; conditions: MHOM/TN/1980/IPT1, 48 h
[3] = test system: Leishmania tropica; assay: Antileishmanial activity against Leishmania tropica MHOM/A7/1974/SAF-K27 incubated for 48 hrs by XTT method; format: functional, organism-based; conditions: MHOM/A7/1974/SAF-K27, 48 h
[4] = test system: Leishmania tropica; assay: Antileishmanial activity against Leishmania tropica MHOM/A7/1974/SAF-K27 incubated for 48 hrs by Neubauer hemocytometer analysis; format: functional, organism-based; conditions: MHOM/A7/1974/SAF-K27, 48 h
[5] = test system: DHFR (human) versus PTR1 (Leishmania major); assay: Selectivity index, ratio of IC50 for human DHFR to IC50 for Leishmania major PTR1; format: toxicity; conditions: human DHFR enzyme and Leishmania major PTR1 enzyme, read-out: Ratio IC50
[6] = target: T1, Pteridine reductase 1 (Leishmania major, UniProt Q01782); assay: Inhibition of recombinant Leishmania major PTR1 expressed in Escherichia coli BL21 using folic acid as substrate in presence of NADPH
T1 sequence (Q01782 whole entry): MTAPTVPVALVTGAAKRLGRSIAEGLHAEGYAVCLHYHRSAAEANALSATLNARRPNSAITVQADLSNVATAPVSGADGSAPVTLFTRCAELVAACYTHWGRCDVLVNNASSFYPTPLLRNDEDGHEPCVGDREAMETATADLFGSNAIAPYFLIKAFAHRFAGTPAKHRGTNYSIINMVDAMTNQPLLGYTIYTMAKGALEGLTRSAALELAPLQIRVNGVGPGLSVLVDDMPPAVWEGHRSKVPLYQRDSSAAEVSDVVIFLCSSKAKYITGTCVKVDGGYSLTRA

[7] = test system: RAW264.7; assay: (§1) Cytotoxicity against mouse RAW264.7 cells by alamar blue method; format: toxicity, cell-based; conditions: raw264.7
[8] = as §1; format: toxicity, cell-based; conditions: mouse, RAW264.7 cells
[9] = test system: L929; assay: (§2) Cytotoxicity against mouse L929 cells by alamar blue method; format: toxicity, cell-based; conditions: l929
[10] = as §2; format: toxicity, cell-based; conditions: mouse, L929 cells

Compound	IC50 [1] [µg/mL]	IC50 [4] [µg/mL]	IC50 [6] [µM]	IC50 [2] [µg/mL]	IC50 [3] [µg/mL]	selectivity ratio [5]	log10 IC50 (µg/mL) [7]	IC50 [8] [µg/mL]	log10 IC50 (µg/mL) [9]	IC50 [10] [µg/mL]
CCOC(=O)N1CCN(c2ncc3nc(NC(=O)c4ccc(Cl)cc4)sc3n2)CC1	52.4 (≈ 117 µM)	53.9 (≈ 121 µM)	–	53.5 (≈ 120 µM)	54.1 (≈ 121 µM)	–	–	–	–	–
CN(C)c1ncc2nc(NC(=O)c3ccc(Cl)cc3)sc2n1	> 300	> 300	–	> 300	> 300	–	–	–	–	–
O=C(Nc1nc2cnc(Cl)nc2s1)c1ccc(Cl)c(Cl)c1	14.1 (≈ 39.3 µM)	14.8 (≈ 41.1 µM)	–	14.4 (≈ 40 µM)	15.1 (≈ 41.9 µM)	–	–	–	–	–
CN1CCN(c2ncc3nc(NC(=O)c4ccc(Cl)c([N+](=O)[O-])c4)sc3n2)CC1	58.8 (≈ 135 µM)	51.5 (≈ 119 µM)	–	60.4 (≈ 139 µM)	53.8 (≈ 124 µM)	–	–	–	–	–
O=C(Nc1nc2cnc(Cl)nc2s1)c1ccc(Cl)c([N+](=O)[O-])c1	30.5 (≈ 82.4 µM)	30.6 (≈ 82.7 µM)	–	30.6 (≈ 82.6 µM)	30.7 (≈ 82.9 µM)	–	–	–	–	–
CC(=O)N1CCN(c2ncc3nc(NC(=O)c4ccc(Cl)cc4)sc3n2)CC1	> 300	> 300	–	> 300	> 300	–	–	–	–	–
CC(=O)N1CCN(c2ncc3nc(NC(=O)c4ccc(Cl)c([N+](=O)[O-])c4)sc3n2)CC1	35.5 (≈ 76.8 µM)	34.4 (≈ 74.4 µM)	–	36.1 (≈ 78.1 µM)	35.3 (≈ 76.3 µM)	–	–	–	–	–
CCN(CC)c1ncc2nc(NC(=O)c3ccc(Cl)c([N+](=O)[O-])c3)sc2n1	15.1 (≈ 37.2 µM)	15.8 (≈ 38.7 µM)	254	15.3 (≈ 37.6 µM)	15.6 (≈ 38.2 µM)	12.6	0.65	4.47 (≈ 11 µM)	1.28	19.1 (≈ 46.8 µM)
CN(C)c1ncc2nc(NC(=O)c3ccc(Cl)c(Cl)c3)sc2n1	112 (≈ 304 µM)	116 (≈ 315 µM)	–	114 (≈ 310 µM)	119 (≈ 322 µM)	–	–	–	–	–
CC(=O)N1CCN(c2ncc3nc(NC(=O)c4ccc(Cl)c(Cl)c4)sc3n2)CC1	126 (≈ 279 µM)	147 (≈ 326 µM)	–	127 (≈ 282 µM)	149 (≈ 331 µM)	–	–	–	–	–
CCN(CC)c1ncc2nc(NC(=O)c3ccc(Cl)cc3)sc2n1	191 (≈ 528 µM)	186 (≈ 515 µM)	–	189 (≈ 523 µM)	188 (≈ 520 µM)	–	–	–	–	–

Second part, led by results:

IC50 [1] [µg/mL]	IC50 [4] [µg/mL]	IC50 [6] [µM]	Compound	IC50 [2] [µg/mL]	IC50 [3] [µg/mL]	selectivity ratio [5]	log10 IC50 (µg/mL) [7]	IC50 [8] [µg/mL]	log10 IC50 (µg/mL) [9]	IC50 [10] [µg/mL]
91.1 (≈ 222 µM)	90.3 (≈ 220 µM)	–	O=C(Nc1nc2cnc(N3CCOCC3)nc2s1)c1ccc(Cl)cc1Cl	90.9 (≈ 222 µM)	90.6 (≈ 221 µM)	–	–	–	–	–
> 300	> 300	–	O=C(Nc1nc2cnc(N3CCOCC3)nc2s1)c1ccc(Cl)cc1	> 300	> 300	–	–	–	–	–
119 (≈ 317 µM)	116 (≈ 310 µM)	–	O=C(Nc1nc2cnc(N3CCCCC3)nc2s1)c1ccc(Cl)cc1	121 (≈ 324 µM)	122 (≈ 327 µM)	–	–	–	–	–
> 300	> 300	–	O=C(Nc1nc2cnc(N3CCCC3)nc2s1)c1ccc(Cl)c(Cl)c1	> 300	> 300	–	–	–	–	–
52.4 (≈ 133 µM)	51.2 (≈ 130 µM)	–	O=C(Nc1nc2cnc(N3CCCC3)nc2s1)c1ccc(Cl)cc1Cl	52.6 (≈ 133 µM)	52 (≈ 132 µM)	–	–	–	–	–
25.7 (≈ 63 µM)	25.1 (≈ 61.6 µM)	–	O=C(Nc1nc2cnc(N3CCCCC3)nc2s1)c1ccc(Cl)c(Cl)c1	25.8 (≈ 63.2 µM)	25.5 (≈ 62.4 µM)	–	–	–	–	–
84.1 (≈ 228 µM)	86.6 (≈ 235 µM)	–	CN(C)c1ncc2nc(NC(=O)c3ccc(Cl)cc3Cl)sc2n1	81.1 (≈ 220 µM)	86.2 (≈ 234 µM)	–	–	–	–	–
123 (≈ 310 µM)	120 (≈ 303 µM)	–	CCN(CC)c1ncc2nc(NC(=O)c3ccc(Cl)cc3Cl)sc2n1	124 (≈ 312 µM)	125 (≈ 315 µM)	–	–	–	–	–
44.1 (≈ 108 µM)	40.3 (≈ 98.2 µM)	–	O=C(Nc1nc2cnc(N3CCOCC3)nc2s1)c1ccc(Cl)c(Cl)c1	44.6 (≈ 109 µM)	41.4 (≈ 101 µM)	–	–	–	–	–
64 (≈ 153 µM)	56.8 (≈ 136 µM)	–	O=C(Nc1nc2cnc(N3CCCCC3)nc2s1)c1ccc(Cl)c([N+](=O)[O-])c1	63.5 (≈ 152 µM)	56.7 (≈ 135 µM)	–	–	–	–	–
114 (≈ 315 µM)	137 (≈ 380 µM)	–	O=C(Nc1nc2cnc(N3CCCC3)nc2s1)c1ccc(Cl)cc1	117 (≈ 326 µM)	141 (≈ 392 µM)	–	–	–	–	–
16.8 (≈ 41.1 µM)	16.3 (≈ 39.9 µM)	–	O=C(Nc1nc2cnc(N3CCCCC3)nc2s1)c1ccc(Cl)cc1Cl	16.8 (≈ 41.1 µM)	16.3 (≈ 39.8 µM)	–	–	–	–	–
77.7 (≈ 172 µM)	75 (≈ 166 µM)	–	CC(=O)N1CCN(c2ncc3nc(NC(=O)c4ccc(Cl)cc4Cl)sc3n2)CC1	78.6 (≈ 174 µM)	75.8 (≈ 168 µM)	–	–	–	–	–
> 300	> 300	–	CCOC(=O)N1CCN(c2ncc3nc(NC(=O)c4ccc(Cl)cc4Cl)sc3n2)CC1	> 300	> 300	–	–	–	–	–
